Key:
Assay type in all cases: in vivo
[1] = system: barnyardgrass (Echinochloa crus-galli); assay: Test A pre-/postemergence greenhouse herbicide test, visual injury rating 0-100
Summary of the method: (§1)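 Ratings are visual, 0 to 100 relative to untreated plants, taken approximately 10 days post-treatment in the greenhouse. Both preemergence soil and postemergence foliar routes were used with surfactant-containing non-phytotoxic solvent formulations.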

corn (Zea mays) = assay: as above
Summary of the method: as §1

[2] = system: giant foxtail (Setaria faberii); assay: as above
Summary of the method: as §1

[3] = system: large (Lg) crabgrass (Digitaria sanguinalis); assay: as above
Summary of the method: as §1

[4] = system: morningglory (Ipomoea spp.); assay: as above
Summary of the method: as §1

[5] = system: pigweed (Amaranthus retroflexus); assay: as above
Summary of the method: as §1

[6] = system: velvetleaf (Abutilon theophrasti); assay: as above
Summary of the method: as §1

[7] = system: wheat (Triticum aestivum); assay: as above
Summary of the method: as §1

[8] = system: Italian ryegrass (Lolium multiflorum); assay: Test C pre-/postemergence greenhouse test, plant response rating 0-100
From the text: (§2) Seeds of plant species selected from blackgrass (Alopecurus myosuroides), Italian ryegrass (Lolium multiflorum), winter wheat (Triticum aestivum), galium (catchweed bedstraw, Galium aparine), corn (Zea mays), large (Lg) crabgrass (Digitaria sanguinalis), giant foxtail (Setaria faberii), johnsongrass (Sorghum halepense), lambsquarters (Chenopodium album), morningglory (Ipomoea coccinea), yellow nutsedge (Cyperus esculentus), pigweed (Amaranthus retroflexus), ragweed (common ragweed, Ambrosia elatior), soybean (Glycine max), barnyardgrass (Echinochloa crus-galli), oilseed rape (Brassica napus), waterhemp (common waterhemp, Amaranthus rudis), and velvetleaf (Abutilon theophrasti) were planted into a blend of loam soil and sand and treated preemergence with test chemicals formulated in a non-phytotoxic solvent mixture which included a surfactant.
(§3) At the same time, plants selected from these crop and weed species and also winter barley (Hordeum vulgare), bermudagrass (Cynodon dactylon), downy bromegrass (Bromus tectorum), canarygrass (Phalaris minor), cocklebur (common cocklebur, Xanthium strumarium), woolly cupgrass (Eriochloa villosa), deadnettle (henbit deadnettle, Lamium amplexicaule), green foxtail (Setaria viridis), goosegrass (Eleusine indica), surinam grass (Brachiaria decumbens), windgrass (Apera spica-venti), chickweed (common chickweed, Stellaria media), kochia (Kochia scoparia), and wild oat (Avena fatua), were planted in pots containing Redi-Earth® planting medium (Scotts Company, 14111 Scottslawn Road, Marysville, Ohio 43041) comprising spaghnum peat moss, vermiculite, wetting agent and starter nutrients and treated with postemergence applications of test chemicals formulated in the same manner. Plants ranged in height from 2 to 18 cm (1- to 4-leaf stage) for postemergence treatments. Treated plants and controls were maintained in a greenhouse for 13 to 15 days, after which time all species were compared to controls and visually evaluated. Plant response ratings, summarized in Table C, are based on a scale of 0 to 100 where 0 is no effect and 100 is complete control. A dash (-) response means no test result.

[9] = system: galium (catchweed bedstraw, Galium aparine); assay: as above; details: Postemergence; for Plant response rating, Galium: scale 0 to 100
From the text: as §2, §3

[10] = system: large (Lg) crabgrass (Digitaria sanguinalis); assay: as above; details: Postemergence; for Plant response rating, Crabgrass, Large: scale 0 to 100
From the text: as §2, §3

[11] = system: ragweed (common ragweed, Ambrosia elatior); assay: as above
From the text: as §2, §3

[12] = system: yellow nutsedge (Cyperus esculentus); assay: as above; details: Postemergence; for Plant response rating, Nutsedge, Yellow: scale 0 to 100
From the text: as §2, §3

[13] = Postemergence, 250 g ai/ha, scale 0 to 100
[14] = Postemergence, 500 g ai/ha, scale 0 to 100
[15] = Preemergence, 0 to 100 scale (0 no effect, 100 complete control), rate 500 g ai/ha per head r3, sub-head of this section not shown

SMILES: O=C(c1ccccc1)c1cn(S(=O)(=O)CCl)nc1-c1cc(Cl)cc(Cl)c1 [Compound 1]
- Plant response rating (0 to 100 scale), Barnyardgrass ([1]; Postemergence, 125 g ai/ha): 0
- Plant response rating (0 to 100 scale), Barnyardgrass ([1]; Postemergence, 500 g ai/ha): 0
- Barnyardgrass plant response rating (0 = no effect, 100 = complete control) ([1]; Preemergence, 125 g ai/ha): 0
- Plant response rating (0 to 100 scale), Barnyardgrass ([1]; Preemergence, 500 g ai/ha): 0
- Plant response rating (0 to 100 scale), Corn (corn (Zea mays); Postemergence, 125 g ai/ha): 0
- Plant response rating (0 to 100 scale), Corn (corn (Zea mays); Postemergence, 500 g ai/ha): 0
- Corn plant response rating (0 = no effect, 100 = complete control) (corn (Zea mays); Preemergence, 125 g ai/ha): 0
- Plant response rating (0 to 100 scale), Corn (corn (Zea mays); Preemergence, 500 g ai/ha): 0
- Plant response rating (0 to 100 scale), Foxtail, Giant ([2]; Postemergence, 125 g ai/ha): 0
- Plant response rating (0 to 100 scale), Foxtail, Giant ([2]; Postemergence, 500 g ai/ha): 0
- Foxtail, Giant plant response rating (0 = no effect, 100 = complete control) ([2]; Preemergence, 125 g ai/ha): 0
- Plant response rating (0 to 100 scale), Foxtail, Giant ([2]; Preemergence, 500 g ai/ha): 0
- Plant response rating (0 to 100 scale), Crabgrass, Large ([3]; Postemergence, 125 g ai/ha): 0
- Plant response rating (0 to 100 scale), Crabgrass, Large ([3]; Postemergence, 500 g ai/ha): 0
- Crabgrass, Large plant response rating (0 = no effect, 100 = complete control) ([3]; Preemergence, 125 g ai/ha): 0
- Plant response rating (0 to 100 scale), Crabgrass, Large ([3]; Preemergence, 500 g ai/ha): 0
- Plant response rating (0 to 100 scale), Morningglory ([4]; Postemergence, 125 g ai/ha): 0
- Plant response rating (0 to 100 scale), Morningglory ([4]; Postemergence, 500 g ai/ha): 0
- Morningglory plant response rating (0 = no effect, 100 = complete control) ([4]; Preemergence, 125 g ai/ha): 0
- Plant response rating (0 to 100 scale), Morningglory ([4]; Preemergence, 500 g ai/ha): 0
- Plant response rating (0 to 100 scale), Pigweed ([5]; Postemergence, 125 g ai/ha): 80
- Plant response rating (0 to 100 scale), Pigweed ([5]; Postemergence, 500 g ai/ha): 90
- Pigweed plant response rating (0 = no effect, 100 = complete control) ([5]; Preemergence, 125 g ai/ha): 40
- Plant response rating (0 to 100 scale), Pigweed ([5]; Preemergence, 500 g ai/ha): 80
- Plant response rating (0 to 100 scale), Velvetleaf ([6]; Postemergence, 125 g ai/ha): 90
- Plant response rating (0 to 100 scale), Velvetleaf ([6]; Postemergence, 500 g ai/ha): 90
- Velvetleaf plant response rating (0 = no effect, 100 = complete control) ([6]; Preemergence, 125 g ai/ha): 20
- Plant response rating (0 to 100 scale), Velvetleaf ([6]; Preemergence, 500 g ai/ha): 20
- Plant response rating (0 to 100 scale), Wheat ([7]; Postemergence, 125 g ai/ha): 0
- Plant response rating (0 to 100 scale), Wheat ([7]; Postemergence, 500 g ai/ha): 0
- Wheat plant response rating (0 = no effect, 100 = complete control) ([7]; Preemergence, 125 g ai/ha): 0
- Plant response rating (0 to 100 scale), Wheat ([7]; Preemergence, 500 g ai/ha): 0
- Plant response rating (0 to 100), Ryegrass, Italian ([8]; Postemergence, 62 g ai/ha): 0
- Plant response rating (0 to 100), Ryegrass, Italian ([8]; Postemergence, 125 g ai/ha): 0
- Plant response rating, Ryegrass, Italian [8, 13]: 0
- Plant response rating (0 to 100), Galium ([9]; 31 g ai/ha): 0
- Plant response rating (0 to 100), Galium ([9]; 62 g ai/ha): 0
- Plant response rating (0 to 100), Galium ([9]; 125 g ai/ha): 0
- Plant response rating, Galium ([9]; 250 g ai/ha): 20
- Plant response rating (0 to 100), Crabgrass, Large ([10]; 31 g ai/ha): 0
- Plant response rating (0 to 100), Crabgrass, Large ([10]; 62 g ai/ha): 0
- Plant response rating (0 to 100), Crabgrass, Large ([10]; 125 g ai/ha): 0
- Plant response rating, Crabgrass, Large ([10]; 250 g ai/ha): 0
- Plant response rating (0 to 100), Ragweed ([11]; Postemergence, 62 g ai/ha): 40
- Plant response rating (0 to 100), Ragweed ([11]; Postemergence, 125 g ai/ha): 50
- Plant response rating, Ragweed [11, 13]: 65
- Plant response rating (0 to 100), Nutsedge, Yellow ([12]; 62 g ai/ha): 0
- Plant response rating (0 to 100), Nutsedge, Yellow ([12]; 125 g ai/ha): 0
- Plant response rating, Nutsedge, Yellow ([12]; 250 g ai/ha): 10

SMILES: O=C(c1ccccc1)c1cn(S(=O)(=O)C(F)(F)F)nc1-c1cc(Cl)cc(Cl)c1 [Compound 2]
- Plant response rating (0 to 100 scale), Barnyardgrass ([1]; Postemergence, 125 g ai/ha): 0
- Plant response rating (0 to 100 scale), Barnyardgrass ([1]; Postemergence, 500 g ai/ha): 0
- Barnyardgrass plant response rating (0 = no effect, 100 = complete control) ([1]; Preemergence, 125 g ai/ha): 0
- Plant response rating (0 to 100 scale), Barnyardgrass ([1]; Preemergence, 500 g ai/ha): 0
- Plant response rating (0 to 100 scale), Corn (corn (Zea mays); Postemergence, 125 g ai/ha): 0
- Plant response rating (0 to 100 scale), Corn (corn (Zea mays); Postemergence, 500 g ai/ha): 0
- Corn plant response rating (0 = no effect, 100 = complete control) (corn (Zea mays); Preemergence, 125 g ai/ha): 0
- Plant response rating (0 to 100 scale), Corn (corn (Zea mays); Preemergence, 500 g ai/ha): 0
- Plant response rating (0 to 100 scale), Foxtail, Giant ([2]; Postemergence, 125 g ai/ha): 0
- Plant response rating (0 to 100 scale), Foxtail, Giant ([2]; Postemergence, 500 g ai/ha): 0
- Foxtail, Giant plant response rating (0 = no effect, 100 = complete control) ([2]; Preemergence, 125 g ai/ha): 0
- Plant response rating (0 to 100 scale), Foxtail, Giant ([2]; Preemergence, 500 g ai/ha): 0
- Plant response rating (0 to 100 scale), Crabgrass, Large ([3]; Postemergence, 125 g ai/ha): 0
- Plant response rating (0 to 100 scale), Crabgrass, Large ([3]; Postemergence, 500 g ai/ha): 0
- Crabgrass, Large plant response rating (0 = no effect, 100 = complete control) ([3]; Preemergence, 125 g ai/ha): 0
- Plant response rating (0 to 100 scale), Crabgrass, Large ([3]; Preemergence, 500 g ai/ha): 0
- Plant response rating (0 to 100 scale), Morningglory ([4]; Postemergence, 125 g ai/ha): 0
- Plant response rating (0 to 100 scale), Morningglory ([4]; Postemergence, 500 g ai/ha): 0
- Morningglory plant response rating (0 = no effect, 100 = complete control) ([4]; Preemergence, 125 g ai/ha): 0
- Plant response rating (0 to 100 scale), Morningglory ([4]; Preemergence, 500 g ai/ha): 0
- Plant response rating (0 to 100 scale), Pigweed ([5]; Postemergence, 125 g ai/ha): 90
- Plant response rating (0 to 100 scale), Pigweed ([5]; Postemergence, 500 g ai/ha): 100
- Pigweed plant response rating (0 = no effect, 100 = complete control) ([5]; Preemergence, 125 g ai/ha): 50
- Plant response rating (0 to 100 scale), Pigweed ([5]; Preemergence, 500 g ai/ha): 100
- Plant response rating (0 to 100 scale), Velvetleaf ([6]; Postemergence, 125 g ai/ha): 90
- Plant response rating (0 to 100 scale), Velvetleaf ([6]; Postemergence, 500 g ai/ha): 100
- Velvetleaf plant response rating (0 = no effect, 100 = complete control) ([6]; Preemergence, 125 g ai/ha): 20
- Plant response rating (0 to 100 scale), Velvetleaf ([6]; Preemergence, 500 g ai/ha): 100
- Plant response rating (0 to 100 scale), Wheat ([7]; Postemergence, 125 g ai/ha): 0
- Plant response rating (0 to 100 scale), Wheat ([7]; Postemergence, 500 g ai/ha): 0
- Wheat plant response rating (0 = no effect, 100 = complete control) ([7]; Preemergence, 125 g ai/ha): 0
- Plant response rating (0 to 100 scale), Wheat ([7]; Preemergence, 500 g ai/ha): 0
- Plant response rating (0 to 100), Ryegrass, Italian ([8]; Postemergence, 62 g ai/ha): 0
- Plant response rating (0 to 100), Ryegrass, Italian ([8]; Postemergence, 125 g ai/ha): 0
- Plant response rating, Ryegrass, Italian [8, 13]: 0
- Plant response rating, Ryegrass, Italian [8, 14]: 0
- Plant response rating, Ryegrass, Italian [8, 15]: 0
- Plant response rating (0 to 100), Galium ([9]; 62 g ai/ha): 0
- Plant response rating (0 to 100), Galium ([9]; 125 g ai/ha): 0
- Plant response rating, Galium ([9]; 250 g ai/ha): 50
- Plant response rating, Galium ([9]; 500 g ai/ha): 50
- Plant response rating (0 to 100), Crabgrass, Large ([10]; 62 g ai/ha): 0
- Plant response rating (0 to 100), Crabgrass, Large ([10]; 125 g ai/ha): 0
- Plant response rating, Crabgrass, Large ([10]; 250 g ai/ha): 0
- Plant response rating, Crabgrass, Large ([10]; 500 g ai/ha): 0
- Plant response rating (0 to 100), Ragweed ([11]; Postemergence, 62 g ai/ha): 40
- Plant response rating (0 to 100), Ragweed ([11]; Postemergence, 125 g ai/ha): 60
- Plant response rating, Ragweed [11, 13]: 60
- Plant response rating, Ragweed [11, 14]: 70
- Plant response rating, Ragweed [11, 15]: 0
- Plant response rating (0 to 100), Nutsedge, Yellow ([12]; 62 g ai/ha): 0
- Plant response rating (0 to 100), Nutsedge, Yellow ([12]; 125 g ai/ha): 0
- Plant response rating, Nutsedge, Yellow ([12]; 250 g ai/ha): 0
- Plant response rating, Nutsedge, Yellow ([12]; 500 g ai/ha): 0

— patent US10167262B2, “Herbicidal substituted 3-arylpyrazoles” (FMC CORPORATION, priority 2014, dated 2019)
